Reference: the supplement of paper PMC12076712

Legend:
Experiment in all cases: pIC50, kinobeads binding competition
PRKG1 = target: T1, PRKG1 (UniProt Q13976); conditions: cell material: Lysate mix
T1 sequence (whole entry): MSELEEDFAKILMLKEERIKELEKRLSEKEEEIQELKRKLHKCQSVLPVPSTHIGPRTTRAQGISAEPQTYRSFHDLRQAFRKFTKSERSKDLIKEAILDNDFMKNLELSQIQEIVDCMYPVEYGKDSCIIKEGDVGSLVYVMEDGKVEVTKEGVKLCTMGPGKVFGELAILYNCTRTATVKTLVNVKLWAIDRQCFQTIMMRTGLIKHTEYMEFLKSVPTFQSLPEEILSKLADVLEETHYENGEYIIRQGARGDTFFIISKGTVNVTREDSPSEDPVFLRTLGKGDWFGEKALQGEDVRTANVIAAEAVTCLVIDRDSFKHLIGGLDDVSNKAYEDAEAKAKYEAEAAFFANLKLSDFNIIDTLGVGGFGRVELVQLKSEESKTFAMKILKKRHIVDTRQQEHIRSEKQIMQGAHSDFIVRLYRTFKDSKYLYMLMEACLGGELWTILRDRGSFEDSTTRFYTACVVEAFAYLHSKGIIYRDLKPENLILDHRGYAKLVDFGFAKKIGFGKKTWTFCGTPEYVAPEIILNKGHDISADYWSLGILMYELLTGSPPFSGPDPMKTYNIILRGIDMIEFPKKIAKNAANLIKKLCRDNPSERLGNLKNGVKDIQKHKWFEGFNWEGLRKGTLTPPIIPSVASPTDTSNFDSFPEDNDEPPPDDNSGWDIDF
Outline: (§1)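 To obtain pIC50, fold changes versus vehicle were fitted to logistic dose-response curves (R drc package) across biological duplicates. Protein binding to Kinobeads was quantified by TMT10 LC-MS/MS of digested bead-bound proteins. Treatments used nine concentrations with a top of 30 μM, applied to live Jurkat cells in 1:4 steps for 60 min at 37 °C before lysis, or to Jurkat lysate or a 1:1:1:1 HEK293/K-562/HepG2/placenta lysate mix in 1:5 steps for 60 min at 4 °C.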

CDK6 = CDK6 (UniProt Q00534)
Outline: as §1

UniProt P48729 = target: UniProt P48729
Outline: as §1

STK33 = STK33 (UniProt Q9BYT3)
Outline: as §1

UniProt Q13164 = target: UniProt Q13164
Outline: as §1

UniProt Q99759 = target: T2, UniProt Q99759
T2 sequence (whole entry): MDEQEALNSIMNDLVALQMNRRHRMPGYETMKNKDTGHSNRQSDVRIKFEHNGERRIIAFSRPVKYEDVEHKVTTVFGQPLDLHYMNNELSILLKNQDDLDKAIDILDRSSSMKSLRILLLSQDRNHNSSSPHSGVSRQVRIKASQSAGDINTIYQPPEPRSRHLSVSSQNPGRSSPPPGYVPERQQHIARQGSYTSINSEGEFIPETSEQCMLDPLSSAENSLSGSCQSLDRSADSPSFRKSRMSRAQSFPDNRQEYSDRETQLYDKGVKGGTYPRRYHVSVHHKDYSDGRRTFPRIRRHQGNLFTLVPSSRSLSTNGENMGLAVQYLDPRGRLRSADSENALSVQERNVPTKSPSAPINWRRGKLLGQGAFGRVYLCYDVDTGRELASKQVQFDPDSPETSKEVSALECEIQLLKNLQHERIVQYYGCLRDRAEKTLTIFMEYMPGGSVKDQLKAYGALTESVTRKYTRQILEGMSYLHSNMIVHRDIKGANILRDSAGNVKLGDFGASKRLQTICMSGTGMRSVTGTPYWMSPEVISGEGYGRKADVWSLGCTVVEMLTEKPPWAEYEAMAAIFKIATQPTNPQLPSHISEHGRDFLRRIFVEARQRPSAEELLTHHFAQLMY
Outline: as §1

UniProt Q13131 = target: UniProt Q13131
Outline: as §1

SYK = SYK (UniProt P43405)
Outline: as §1

UniProt P78356 = target: T3, UniProt P78356
T3 sequence (whole entry): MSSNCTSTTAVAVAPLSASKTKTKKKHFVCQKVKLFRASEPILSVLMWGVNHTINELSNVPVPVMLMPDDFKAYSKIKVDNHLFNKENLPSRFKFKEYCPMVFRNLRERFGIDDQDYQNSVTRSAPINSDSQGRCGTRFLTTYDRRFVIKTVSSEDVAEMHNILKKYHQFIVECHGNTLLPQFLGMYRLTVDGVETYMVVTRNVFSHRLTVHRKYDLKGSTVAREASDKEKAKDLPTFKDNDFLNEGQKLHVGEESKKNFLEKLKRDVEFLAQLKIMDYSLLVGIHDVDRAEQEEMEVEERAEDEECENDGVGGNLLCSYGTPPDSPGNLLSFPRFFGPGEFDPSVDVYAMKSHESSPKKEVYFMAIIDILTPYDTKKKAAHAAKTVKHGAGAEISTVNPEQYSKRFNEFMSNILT
Outline: as §1

UniProt Q8IW41 = target: T4, UniProt Q8IW41
T4 sequence (whole entry): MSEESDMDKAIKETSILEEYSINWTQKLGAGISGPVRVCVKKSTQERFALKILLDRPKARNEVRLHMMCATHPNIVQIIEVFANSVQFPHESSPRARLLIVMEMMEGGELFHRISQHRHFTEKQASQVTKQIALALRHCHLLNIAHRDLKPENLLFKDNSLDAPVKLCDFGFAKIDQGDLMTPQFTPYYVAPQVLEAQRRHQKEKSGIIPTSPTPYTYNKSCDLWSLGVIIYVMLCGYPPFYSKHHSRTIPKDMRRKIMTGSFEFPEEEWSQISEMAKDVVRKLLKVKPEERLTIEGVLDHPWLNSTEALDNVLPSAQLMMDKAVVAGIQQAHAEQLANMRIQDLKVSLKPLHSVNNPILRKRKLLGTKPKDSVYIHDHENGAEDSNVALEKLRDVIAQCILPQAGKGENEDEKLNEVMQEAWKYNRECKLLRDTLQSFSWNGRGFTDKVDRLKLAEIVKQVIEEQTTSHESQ
Outline: as §1

UniProt Q15418 = target: UniProt Q15418
Outline: as §1

UniProt P49841 = target: UniProt P49841
Outline: as §1

Chain of UniProt Q15418 (Q15418 whole entry): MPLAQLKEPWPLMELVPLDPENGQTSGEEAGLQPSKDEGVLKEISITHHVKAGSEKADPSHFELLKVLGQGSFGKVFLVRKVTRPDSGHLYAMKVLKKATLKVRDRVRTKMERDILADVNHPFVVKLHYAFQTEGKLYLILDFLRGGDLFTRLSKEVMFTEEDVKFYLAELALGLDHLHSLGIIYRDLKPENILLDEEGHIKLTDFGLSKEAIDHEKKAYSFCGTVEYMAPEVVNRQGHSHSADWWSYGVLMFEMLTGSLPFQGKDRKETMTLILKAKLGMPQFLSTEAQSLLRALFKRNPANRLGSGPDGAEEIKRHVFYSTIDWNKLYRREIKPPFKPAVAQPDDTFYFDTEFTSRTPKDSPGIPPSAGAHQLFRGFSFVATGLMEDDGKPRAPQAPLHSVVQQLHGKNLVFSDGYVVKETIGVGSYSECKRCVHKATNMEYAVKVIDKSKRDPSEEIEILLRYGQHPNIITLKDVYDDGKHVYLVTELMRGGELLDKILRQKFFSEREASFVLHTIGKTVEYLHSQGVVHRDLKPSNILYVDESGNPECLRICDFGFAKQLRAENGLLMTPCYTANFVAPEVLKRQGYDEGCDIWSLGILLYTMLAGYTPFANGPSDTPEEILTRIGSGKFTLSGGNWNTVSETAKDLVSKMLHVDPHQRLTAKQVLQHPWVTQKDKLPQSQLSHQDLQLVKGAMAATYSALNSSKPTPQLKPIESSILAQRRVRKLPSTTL
Chain of UniProt P49841 (P49841 whole entry, looked up): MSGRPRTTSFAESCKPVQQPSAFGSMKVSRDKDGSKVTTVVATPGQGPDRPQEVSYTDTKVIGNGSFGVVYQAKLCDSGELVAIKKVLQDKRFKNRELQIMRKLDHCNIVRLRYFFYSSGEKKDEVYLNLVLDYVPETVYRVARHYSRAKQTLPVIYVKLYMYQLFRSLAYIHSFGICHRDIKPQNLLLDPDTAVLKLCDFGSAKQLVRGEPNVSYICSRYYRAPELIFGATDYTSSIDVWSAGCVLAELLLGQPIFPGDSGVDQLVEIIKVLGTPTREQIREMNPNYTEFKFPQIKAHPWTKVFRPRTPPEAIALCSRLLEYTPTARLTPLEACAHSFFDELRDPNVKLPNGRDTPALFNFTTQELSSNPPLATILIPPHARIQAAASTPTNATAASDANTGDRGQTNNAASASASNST
Chain of UniProt Q13131 (Q13131 whole entry, looked up): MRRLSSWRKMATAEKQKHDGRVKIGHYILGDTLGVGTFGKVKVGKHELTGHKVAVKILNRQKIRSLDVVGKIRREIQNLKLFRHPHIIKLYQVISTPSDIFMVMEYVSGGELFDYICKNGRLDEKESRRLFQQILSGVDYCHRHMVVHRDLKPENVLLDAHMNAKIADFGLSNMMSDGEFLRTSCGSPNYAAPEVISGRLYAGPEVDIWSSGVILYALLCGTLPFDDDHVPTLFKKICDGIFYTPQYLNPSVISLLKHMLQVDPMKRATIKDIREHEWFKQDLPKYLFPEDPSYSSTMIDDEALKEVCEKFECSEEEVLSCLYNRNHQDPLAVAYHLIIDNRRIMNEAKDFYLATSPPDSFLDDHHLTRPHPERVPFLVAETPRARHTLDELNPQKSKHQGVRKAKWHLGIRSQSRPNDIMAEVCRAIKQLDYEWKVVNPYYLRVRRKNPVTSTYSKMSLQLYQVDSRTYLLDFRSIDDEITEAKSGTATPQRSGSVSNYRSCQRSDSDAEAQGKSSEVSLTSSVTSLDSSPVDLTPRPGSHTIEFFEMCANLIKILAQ
Chain of UniProt Q13164 (Q13164 whole entry, looked up): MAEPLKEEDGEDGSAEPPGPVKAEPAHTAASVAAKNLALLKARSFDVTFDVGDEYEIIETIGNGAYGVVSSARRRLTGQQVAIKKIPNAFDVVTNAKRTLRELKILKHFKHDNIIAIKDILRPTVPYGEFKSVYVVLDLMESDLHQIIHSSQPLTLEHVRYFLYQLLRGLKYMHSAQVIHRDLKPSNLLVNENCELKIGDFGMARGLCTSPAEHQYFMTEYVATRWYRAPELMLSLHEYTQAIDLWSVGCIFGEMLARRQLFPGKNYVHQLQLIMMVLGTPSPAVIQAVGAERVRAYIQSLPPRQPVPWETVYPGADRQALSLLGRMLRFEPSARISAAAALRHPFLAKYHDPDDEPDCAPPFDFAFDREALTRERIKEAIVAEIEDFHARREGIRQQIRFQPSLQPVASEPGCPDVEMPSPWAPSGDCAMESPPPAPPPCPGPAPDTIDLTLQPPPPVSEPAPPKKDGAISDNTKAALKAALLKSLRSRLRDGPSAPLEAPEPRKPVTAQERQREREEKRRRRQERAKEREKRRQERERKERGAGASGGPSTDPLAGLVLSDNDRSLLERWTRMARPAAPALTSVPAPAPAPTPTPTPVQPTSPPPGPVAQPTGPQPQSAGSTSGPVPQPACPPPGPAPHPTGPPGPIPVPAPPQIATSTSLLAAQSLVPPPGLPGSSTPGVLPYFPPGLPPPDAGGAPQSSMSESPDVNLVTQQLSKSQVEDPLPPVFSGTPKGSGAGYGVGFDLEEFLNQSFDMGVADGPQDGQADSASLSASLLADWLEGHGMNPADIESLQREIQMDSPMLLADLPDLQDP
Chain of STK33 (Q9BYT3 whole entry, looked up): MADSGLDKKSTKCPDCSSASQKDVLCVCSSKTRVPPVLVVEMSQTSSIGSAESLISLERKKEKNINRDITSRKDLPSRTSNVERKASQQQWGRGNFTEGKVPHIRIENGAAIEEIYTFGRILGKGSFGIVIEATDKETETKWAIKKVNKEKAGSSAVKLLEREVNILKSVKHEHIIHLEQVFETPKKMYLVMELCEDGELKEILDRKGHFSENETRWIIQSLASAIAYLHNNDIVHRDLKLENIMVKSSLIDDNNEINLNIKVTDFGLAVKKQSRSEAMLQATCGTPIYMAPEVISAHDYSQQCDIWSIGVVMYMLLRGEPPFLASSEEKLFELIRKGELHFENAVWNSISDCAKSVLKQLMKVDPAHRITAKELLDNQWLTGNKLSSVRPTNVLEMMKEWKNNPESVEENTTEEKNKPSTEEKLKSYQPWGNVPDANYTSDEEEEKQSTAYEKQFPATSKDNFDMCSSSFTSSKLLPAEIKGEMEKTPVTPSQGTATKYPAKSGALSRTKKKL
Chain of CDK6 (Q00534 whole entry): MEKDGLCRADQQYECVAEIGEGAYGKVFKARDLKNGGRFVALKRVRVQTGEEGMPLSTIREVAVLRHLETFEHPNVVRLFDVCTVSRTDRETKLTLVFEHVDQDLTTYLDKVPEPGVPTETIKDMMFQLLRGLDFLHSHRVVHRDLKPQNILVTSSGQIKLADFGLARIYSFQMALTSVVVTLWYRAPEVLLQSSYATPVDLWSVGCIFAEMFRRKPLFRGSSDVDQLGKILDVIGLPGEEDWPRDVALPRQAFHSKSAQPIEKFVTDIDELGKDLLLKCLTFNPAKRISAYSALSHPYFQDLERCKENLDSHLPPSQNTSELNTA
Chain of UniProt P48729 (P48729 whole entry, looked up): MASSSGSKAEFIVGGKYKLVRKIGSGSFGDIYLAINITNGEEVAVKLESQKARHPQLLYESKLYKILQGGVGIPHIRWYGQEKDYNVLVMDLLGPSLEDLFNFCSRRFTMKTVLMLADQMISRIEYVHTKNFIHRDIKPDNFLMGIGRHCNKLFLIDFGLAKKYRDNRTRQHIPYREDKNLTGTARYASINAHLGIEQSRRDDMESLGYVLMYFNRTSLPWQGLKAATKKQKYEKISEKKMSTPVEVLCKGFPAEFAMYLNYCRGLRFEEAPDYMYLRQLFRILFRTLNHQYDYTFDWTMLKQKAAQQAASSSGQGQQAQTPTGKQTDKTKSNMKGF

Compound | pIC50 (PRKG1) | pIC50 (CDK6; cell material: Lysate mix) | pIC50 (UniProt P48729; cell material: Lysate mix) | pIC50 (STK33; cell material: Lysate mix) | pIC50 (UniProt Q13164; cell material: Lysate mix) | pIC50 (UniProt Q99759; cell material: Lysate mix) | pIC50 (UniProt Q13131; cell material: Lysate mix) | pIC50 (SYK; cell material: Jurkat cells) | pIC50 (SYK; cell material: Lysate mix) | pIC50 (UniProt P78356; cell material: Lysate mix) | pIC50 (UniProt Q8IW41; cell material: Jurkat cells) | pIC50 (UniProt Q8IW41; cell material: Lysate mix) | pIC50 (UniProt P49841; cell material: Lysate mix) | pIC50 (UniProt Q15418; cell material: Lysate mix) | pIC50 (CDK6; cell material: Jurkat cells) | pIC50 (CDK6; cell material: Jurkat lysate) | pIC50 (UniProt P48729; cell material: Jurkat lysate) | pIC50 (STK33; cell material: Jurkat cells) | pIC50 (STK33; cell material: Jurkat lysate) | pIC50 (UniProt Q13164; cell material: Jurkat cells) | pIC50 (UniProt Q13164; cell material: Jurkat lysate) | pIC50 (UniProt Q99759; cell material: Jurkat cells) | pIC50 (UniProt Q99759; cell material: Jurkat lysate) | pIC50 (UniProt Q13131; cell material: Jurkat cells) | pIC50 (UniProt Q13131; cell material: Jurkat lysate) | pIC50 (SYK; cell material: Jurkat lysate) | pIC50 (UniProt P78356; cell material: Jurkat lysate) | pIC50 (UniProt Q8IW41; cell material: Jurkat lysate) | pIC50 (UniProt Q15418; cell material: Jurkat cells) | pIC50 (UniProt Q15418; cell material: Jurkat lysate) | pIC50 (UniProt P49841; cell material: Jurkat cells) | pIC50 (UniProt P49841; cell material: Jurkat lysate) | pIC50 (UniProt P48729; cell material: Jurkat cells)
CCNC(=O)c1cc(Nc2cc(C3CC3)[nH]n2)nc(N2CCN(Cc3ccc(S(=O)(=O)F)cc3)CC2)n1 | < 4.52 | 5.52 | < 4.52 | 5.67 | 5.16 | 5.08 | 7.03 |  | 6.22 | < 4.52 |  | < 4.52 | < 4.52 | 5.37 |  |  |  |  |  |  |  |  |  |  |  |  |  |  |  |  |  |  | 
CCNC(=O)c1cc(Nc2cc(C)[nH]n2)nc(N2CCN(Cc3ccc(S(=O)(=O)F)cc3)CC2)n1 | < 4.52 | 5.22 | < 4.52 | < 4.52 | 4.6 | < 4.52 | 6.97 |  | 5.57 | < 4.52 |  | < 4.52 | < 4.52 | 5.04 |  |  |  |  |  |  |  |  |  |  |  |  |  |  |  |  |  |  | 
C#CCNC(=O)c1cc(Nc2cc(C3CC3)[nH]n2)nc(N2CCN(Cc3ccc(S(=O)(=O)F)cc3)CC2)n1 | < 4.52 | 5.58 | < 4.52 | 5.82 | 5.14 | 5.16 | 7.2 |  | 6.28 | < 4.52 |  | < 4.52 | < 4.52 | 5.49 | 6.84 | 5.43 | < 4.52 | 6.2 | 5.12 | 5.69 | < 4.52 | 5.8 | 4.72 | 6.64 | 6.58 | 5.64 | < 4.52 | < 4.52 | 5.98 | < 4.52 | 5.26 | < 4.52 | 5.51
C#CCNC(=O)c1cc(Nc2cc(C)[nH]n2)nc(N2CCN(Cc3ccc(S(=O)(=O)F)cc3)CC2)n1 | < 4.52 | 5.06 | < 4.52 | < 4.52 | < 4.52 | < 4.52 | 6.3 |  | 5.52 | < 4.52 |  | < 4.52 | < 4.52 | 5.27 |  |  |  |  |  |  |  |  |  |  |  |  |  |  |  |  |  |  | 

Now from value to molecule, other results behind:

pIC50 (PRKG1) | pIC50 (CDK6; cell material: Lysate mix) | pIC50 (UniProt P48729; cell material: Lysate mix) | pIC50 (STK33; cell material: Lysate mix) | pIC50 (UniProt Q13164; cell material: Lysate mix) | pIC50 (UniProt Q99759; cell material: Lysate mix) | pIC50 (UniProt Q13131; cell material: Lysate mix) | pIC50 (SYK; cell material: Jurkat cells) | pIC50 (SYK; cell material: Lysate mix) | pIC50 (UniProt P78356; cell material: Lysate mix) | pIC50 (UniProt Q8IW41; cell material: Jurkat cells) | pIC50 (UniProt Q8IW41; cell material: Lysate mix) | pIC50 (UniProt P49841; cell material: Lysate mix) | pIC50 (UniProt Q15418; cell material: Lysate mix) | Compound | pIC50 (CDK6; cell material: Jurkat cells) | pIC50 (CDK6; cell material: Jurkat lysate) | pIC50 (UniProt P48729; cell material: Jurkat lysate) | pIC50 (STK33; cell material: Jurkat cells) | pIC50 (STK33; cell material: Jurkat lysate) | pIC50 (UniProt Q13164; cell material: Jurkat cells) | pIC50 (UniProt Q13164; cell material: Jurkat lysate) | pIC50 (UniProt Q99759; cell material: Jurkat cells) | pIC50 (UniProt Q99759; cell material: Jurkat lysate) | pIC50 (UniProt Q13131; cell material: Jurkat cells) | pIC50 (UniProt Q13131; cell material: Jurkat lysate) | pIC50 (SYK; cell material: Jurkat lysate) | pIC50 (UniProt P78356; cell material: Jurkat lysate) | pIC50 (UniProt Q8IW41; cell material: Jurkat lysate) | pIC50 (UniProt Q15418; cell material: Jurkat cells) | pIC50 (UniProt Q15418; cell material: Jurkat lysate) | pIC50 (UniProt P49841; cell material: Jurkat cells) | pIC50 (UniProt P49841; cell material: Jurkat lysate) | pIC50 (UniProt P48729; cell material: Jurkat cells)
< 4.52 | < 4.52 | < 4.52 | < 4.52 | < 4.52 | < 4.52 | 5.56 | 5.38 | < 4.52 | < 4.52 | < 4.52 | < 4.52 | < 4.52 |  | O=C(NCCNC(=O)c1cc(Nc2cc(C3CC3)[nH]n2)nc(N2CCN(Cc3ccc(S(=O)(=O)F)cc3)CC2)n1)OC1CC/C=C/CCC1 (stereo not given) | 6.38 | < 4.52 | < 4.52 | 5.76 | < 4.52 | 4.92 | < 4.52 | 4.88 | < 4.52 | 6.8 | 5.32 | < 4.52 | < 4.52 | < 4.52 | 5.78 | < 4.52 | 4.84 | < 4.52 | 
< 4.52 | < 4.52 | < 4.52 | < 4.52 | < 4.52 | < 4.52 | 5.24 |  | < 4.52 | < 4.52 |  | < 4.52 | < 4.52 | < 4.52 | Cc1cc(Nc2cc(C(=O)NCCNC(=O)OC3CC/C=C/CCC3)nc(N3CCN(Cc4ccc(S(=O)(=O)F)cc4)CC3)n2)n[nH]1 (stereo not given) |  |  |  |  |  |  |  |  |  |  |  |  |  |  |  |  |  |  | 
